Results taken from PubChem BioAssay AID1259408 (Genetic Toxicology Data Bank (GENE-TOX), 2018).
The source made the active and inactive calls. How the calls were made is not given here. Numbered stars: 1 amine (or outer) side, 2 acyl side, 3 side chain; on linkers, the order of the positions; unused ones are H or OH. Peptide text beside a SMILES is read from it. CO = O=C([*:1])[*:2]

Tested on: GENE-TOX genotoxicity assays, various organisms and cells
Assay: GENE-TOX mutagenicity studies
Settings: for call: Assay Type: In vivo carcinogenicity studies
[1] = Species/Cell Type: Human, Assay Type: Sister-chromatid exchange (SCE) in vitro, Assay Code: SC1+D, Dose Response: With dose response, Evaluation Type: Evaluation B (Post-1980)
[2] = Species/Cell Type: Salmonella typhimurium (one or more of the five standard strains: TA98, TA100, TA1535, TA1537, and TA1538), Assay Type: Histidine reverse gene mutation, Ames assay, Assay Code: SAL+, Evaluation Type: Evaluation A (Pre-1980)
[3] = Species/Cell Type: Drosophila melanogaster, Assay Type: Sex-linked recessive lethal gene mutation, Assay Code: SRL+, Evaluation Type: Evaluation A (Pre-1980)
[4] = Species/Cell Type: Drosophila melanogaster, Assay Type: Sex-linked recessive lethal gene mutation, Assay Code: SRLT, Evaluation Type: Evaluation A (Pre-1980)
[5] = Species/Cell Type: Escherichia coli polA (W3119 vs P3478), Assay Type: Rec-assay, DNA effects (bacterial DNA repair), Assay Code: RE1+, Evaluation Type: Evaluation A (Pre-1980)
[6] = Species/Cell Type: Nonhuman, Assay Code: CCG+, Evaluation Type: Evaluation A (Pre-1980)
[7] = Species/Cell Type: Salmonella typhimurium (one or more of the five standard strains: TA98, TA100, TA1535, TA1537, and TA1538), Assay Type: Histidine reverse gene mutation, Ames assay, Assay Code: SALT, Evaluation Type: Evaluation A (Pre-1980)
[8] = Species/Cell Type: Mammalian polychromatic erythrocytes, Assay Type: Micronucleus test, chromosome aberrations, Assay Code: MNTT, Evaluation Type: Evaluation B (Post-1980)
[9] = Species/Cell Type: Nonhuman, Assay Code: CCG-, Evaluation Type: Evaluation A (Pre-1980)

**Q.** Which mutagenic call (Species/Cell Type: Drosophila melanogaster, Assay Type: Aneuploidy, sex chromosome gain, chromosome aberrations, Assay Code: DAGT, Evaluation Type: Evaluation A (Pre-1980)) does the source give for `c1cc2c3c(cccc3c1)CC2` here?
**A.** no conclusion

**Q.** `CSC\C=C(C)/C=C\C=C(C)/C=C\C1=C(C)CCCC1(C)C` was tested. Which mutagenic call [1] did it give?
**A.** active; positive

**Q.** Which mutagenic call (Species/Cell Type: Allium cepa, Assay Type: Chromosome aberrations, Assay Code: ALC+D, Dose Response: With dose response, Evaluation Type: Evaluation A (Pre-1980)) does the source give for `N#Cc1cccc2ccccc12` here?
**A.** active; positive

**Q.** `CNC(=O)Oc1cccc2c1OC(C)(C)O2` was tested. Which mutagenic call (Species/Cell Type: Aspergillus nidulans, Assay Type: Aneuploidy, chromosome aberrations, Assay Code: ASN-, Evaluation Type: Evaluation A (Pre-1980)) did it give?
**A.** inactive; negative

**Q.** With `CC(=O)NCc1nc(-c2ccc([N+](=O)[O-])o2)no1` as the compound, how does the mutagenic call [2] read?
**A.** active; positive

**Q.** With `CC1CN1P(=O)(N(C)C)N(C)C` (stereo not drawn) as the compound, how does the mutagenic call [3] read?
**A.** active; positive

**Q.** Which mutagenic call [2] does the source give for `O=C1c2ccccc2C(=O)c2c1cc(O)c(CO)c2O` here?
**A.** active; positive

**Q.** Which results are given for `CCc1cn([C@H]2C[C@H](O)[C@@H](CO)O2)c(=O)[nH]c1=O`?
**A.** mutagenic call [4]: no conclusion; mutagenic call (Species/Cell Type: Drosophila melanogaster, Sex: Male, Assay Type: Heritable translocation test, chromosome aberrations, Assay Code: DHTT, Evaluation Type: Evaluation A (Pre-1980)): no conclusion; mutagenic call (Species/Cell Type: Human lymphocytes, Assay Type: Sister-chromatid exchange (SCE) in vitro, Assay Code: SCLT, Evaluation Type: Evaluation B (Post-1980)): no conclusion; mutagenic call (Species/Cell Type: Human, Assay Type: Sister-chromatid exchange (SCE) in vitro, Assay Code: SC1T, Evaluation Type: Evaluation B (Post-1980)): no conclusion

**Q.** Which mutagenic call [5] does the source give for `O=BOO` here?
**A.** active; positive

**Q.** `c1ccc2c(c1)ccc1nc3c(ccc4ccccc43)cc12` was tested. Which mutagenic call (Species/Cell Type: Fischer rat embryo (RLV/1706) cells, Assay Type: Cell transformation, viral enhanced, Assay Code: CTR+, Evaluation Type: Evaluation A (Pre-1980)) did it give?
**A.** active; positive

**Q.** And the call [6]?
**A.** active; positive

**Q.** Which mutagenic call (Species/Cell Type: Human, Assay Type: Sister-chromatid exchange (SCE) in vitro, Assay Code: SC1+, Evaluation Type: Evaluation B (Post-1980)) does the source give for `CC(C)[C@H](NC(=O)[C@H](CCCN=C(N)N)NC(=O)N[C@@H](Cc1ccccc1)C(=O)O)C(=O)N[C@H](C=O)CCCN=C(N)N` ({Phe-CO}-Arg-Val-Arg-aldehyde) here?
**A.** active; positive

**Q.** What about the mutagenic call (Species/Cell Type: Mouse (C3H/10T1/2) cells, Assay Type: Cell transformation, Assay Code: CTH-, Evaluation Type: Evaluation A (Pre-1980)) of the same compound?
**A.** inactive; negative

**Q.** And the mutagenic call (Species/Cell Type: Nonhuman, Assay Type: Sister-chromatid exchange (SCE) in vitro, Assay Code: SC2T, Evaluation Type: Evaluation B (Post-1980))?
**A.** no conclusion

**Q.** With `OCC(S)CS` (stereo not drawn) as the compound, how does the mutagenic call (Species/Cell Type: Escherichia coli polA (W3119 vs P3478), Assay Type: Rec-assay, DNA effects (bacterial DNA repair), Assay Code: RE1-, Evaluation Type: Evaluation A (Pre-1980)) read?
**A.** inactive; negative

**Q.** Which mutagenic call (Species/Cell Type: Mammalian polychromatic erythrocytes, Assay Type: Micronucleus test, chromosome aberrations, Assay Code: MNT+, Evaluation Type: Evaluation B (Post-1980)) does the source give for `C[C@H](N)C(=O)c1ccccc1` here?
**A.** active; positive

**Q.** `O=c1[nH]cc[nH]1` was tested. Which mutagenic call [4] did it give?
**A.** no conclusion

**Q.** Which mutagenic call [5] does the source give for `CC(C)(C)I` here?
**A.** active; positive

**Q.** What does the source list for `CC(C)(C)NCC(O)COc1cccc2c1CCC(=O)N2` (stereo not drawn)?
**A.** mutagenic call (Species/Cell Type: Bacillus subtilis (H17 vs M45), Assay Type: Rec-assay, spot test, DNA effects (bacterial DNA repair), Assay Code: REW-, Evaluation Type: Evaluation A (Pre-1980)): inactive; negative; mutagenic call (Species/Cell Type: Escherichia coli WP2, Assay Type: Tryptophan reverse gene mutation, Assay Code: WP2-, Evaluation Type: Evaluation A (Pre-1980)): inactive; negative; mutagenic call (Species/Cell Type: Escherichia coli WP2 UVRA, Assay Type: Tryptophan reverse gene mutation, Assay Code: WPU-, Evaluation Type: Evaluation A (Pre-1980)): inactive; negative; mutagenic call (Species/Cell Type: Salmonella typhimurium, Assay Type: Forward and reverse gene mutation, host-mediated assay, Assay Code: HMA-, Evaluation Type: Evaluation A (Pre-1980)): inactive; negative

**Q.** For `C[C@@]1(O)C=Cc2cc3c(ccc4ccccc43)c3c2[C@@]1(O)CC3`, which mutagenic call (Species/Cell Type: Chinese hamster lung (V79) cells, Assay Type: Forward gene mutation at the HPRT or ouabain locus, Assay Code: V79-, Evaluation Type: Evaluation A (Pre-1980)) is on record?
**A.** inactive; negative

**Q.** What about the call (Species/Cell Type: Nonhuman, Assay Code: CCGT, Evaluation Type: Evaluation A (Pre-1980)) of the same compound?
**A.** no conclusion

**Q.** And the mutagenic call [7]?
**A.** no conclusion

**Q.** `Cc1cc(O)c2c(c1)C(=O)c1cc(O)cc(O[C@@H]3O[C@H](CO)[C@@H](O)[C@H](O)[C@H]3O)c1C2=O` was tested. Which mutagenic call (Species/Cell Type: Salmonella typhimurium (one or more of the five standard strains: TA98, TA100, TA1535, TA1537, and TA1538), Assay Type: Histidine reverse gene mutation, Ames assay, Assay Code: SAL+*, Activation: With metabolic activation, Evaluation Type: Evaluation A (Pre-1980)) did it give?
**A.** active; positive

**Q.** With `[Cl][Pt-2]([Cl])([Cl])([Cl])([Cl])[Cl]` as the compound, how does the mutagenic call (Species/Cell Type: Bacillus subtilis (H17 vs M45), Assay Type: Rec-assay, spot test, DNA effects (bacterial DNA repair), Assay Code: REW+, Evaluation Type: Evaluation A (Pre-1980)) read?
**A.** active; positive

**Q.** Which results are given for `Nc1ccc(N=Nc2ccc(-c3ccc(N=Nc4c(S(=O)(=O)O)cc5c(c4N)C(=O)/C(=N/Nc4ccccc4)C(S(=O)(=O)O)=C5)cc3)cc2)c(N)c1`?
**A.** mutagenic call (Species/Cell Type: Drosophila melanogaster, Assay Type: Sex-linked recessive lethal gene mutation, Assay Code: SRL-, Evaluation Type: Evaluation A (Pre-1980)): inactive; negative; call [6]: active; positive

**Q.** With `NNc1nnc(NN)c2ccccc12` as the compound, how does the mutagenic call (Species/Cell Type: Nonhuman, Assay Type: Sister-chromatid exchange (SCE) in vivo, Assay Code: SC3+, Evaluation Type: Evaluation B (Post-1980)) read?
**A.** active; positive

**Q.** For `Cc1cc(C)[o+]c(C)c1`, which mutagenic call (Species/Cell Type: Allium cepa, Assay Type: Chromosome aberrations, Assay Code: ALC+, Evaluation Type: Evaluation A (Pre-1980)) is on record?
**A.** active; positive

**Q.** With `CNC1(c2ccccc2Cl)CCCCC1=O` (stereo not drawn) as the compound, how does the mutagenic call [7] read?
**A.** no conclusion

**Q.** With `CC(S)C(=O)NCC(=O)O` (stereo not drawn) as the compound, how does the mutagenic call [8] read?
**A.** no conclusion

**Q.** Which call [9] does the source give for `O=C1OC(=O)c2ccccc21` here?
**A.** inactive; negative

**Q.** Which call [9] does the source give for `Cc1ccc(N)cc1Cl` here?
**A.** inactive; negative

**Q.** `C=O` was tested. Which mutagenic call (Species/Cell Type: Chinese hamster ovary (CHO) cells, Assay Type: Forward gene mutation at the HPRT locus, Assay Code: CHOT, Evaluation Type: Evaluation B (Post-1980)) did it give?
**A.** no conclusion

**Q.** What about the mutagenic call [3] of the same compound?
**A.** active; positive

**Q.** And the mutagenic call (Species/Cell Type: Drosophila melanogaster, Sex: Male, Assay Type: Heritable translocation test, chromosome aberrations, Assay Code: DHT+, Evaluation Type: Evaluation A (Pre-1980))?
**A.** active; positive

**Q.** What about the mutagenic call [5] of the same compound?
**A.** active; positive

**Q.** And the mutagenic call (Species/Cell Type: Human diploid fibroblasts, Assay Type: Unscheduled DNA synthesis (UDS) in vitro, DNA effects, Assay Code: UDHT, Evaluation Type: Evaluation A (Pre-1980))?
**A.** no conclusion

**Q.** And the mutagenic call (Species/Cell Type: Human lymphocytes, Assay Type: Sister-chromatid exchange (SCE) in vitro, Assay Code: SCL+D, Dose Response: With dose response, Evaluation Type: Evaluation B (Post-1980))?
**A.** active; positive

**Q.** What about the mutagenic call (Species/Cell Type: Human lymphocytes, Assay Type: Sister-chromatid exchange (SCE) in vivo, Assay Code: SCY+, Evaluation Type: Evaluation B (Post-1980)) of the same compound?
**A.** active; positive

**Q.** And the mutagenic call [1]?
**A.** active; positive

**Q.** And the mutagenic call [8]?
**A.** no conclusion

**Q.** And the mutagenic call (Species/Cell Type: Neurospora crassa, Assay Type: Reverse gene mutation, Assay Code: NER+, Evaluation Type: Evaluation A (Pre-1980))?
**A.** active; positive

**Q.** What about the call [6] of the same compound?
**A.** active; positive

**Q.** And the mutagenic call (Species/Cell Type: Nonhuman, Assay Type: Sister-chromatid exchange (SCE) in vitro, Assay Code: SC2+D, Dose Response: With dose response, Evaluation Type: Evaluation B (Post-1980))?
**A.** active; positive

**Q.** And the mutagenic call (Species/Cell Type: Saccharomyces cerevisiae, Assay Type: Mitotic recombination or gene conversion, Assay Code: YEC+, Evaluation Type: Evaluation A (Pre-1980))?
**A.** active; positive

**Q.** What about the mutagenic call (Species/Cell Type: Saccharomyces cerevisiae, Assay Type: Reverse gene mutation, Assay Code: YER+, Evaluation Type: Evaluation A (Pre-1980)) of the same compound?
**A.** active; positive

**Q.** Which mutagenic call (Species/Cell Type: Arabidopsis species, Assay Type: Gene mutation, Assay Code: ARM-, Evaluation Type: Evaluation A (Pre-1980)) does the source give for `O=C1CN(CO)C(=O)CN1CO` here?
**A.** inactive; negative
